The target in series [1] is T1, human GIP receptor (hGIP R) (Homo sapiens, UniProt P48546).
T1 construct: expressed in transfected cells; host or cells: HEK-293
T1 sequence (P48546 22-466): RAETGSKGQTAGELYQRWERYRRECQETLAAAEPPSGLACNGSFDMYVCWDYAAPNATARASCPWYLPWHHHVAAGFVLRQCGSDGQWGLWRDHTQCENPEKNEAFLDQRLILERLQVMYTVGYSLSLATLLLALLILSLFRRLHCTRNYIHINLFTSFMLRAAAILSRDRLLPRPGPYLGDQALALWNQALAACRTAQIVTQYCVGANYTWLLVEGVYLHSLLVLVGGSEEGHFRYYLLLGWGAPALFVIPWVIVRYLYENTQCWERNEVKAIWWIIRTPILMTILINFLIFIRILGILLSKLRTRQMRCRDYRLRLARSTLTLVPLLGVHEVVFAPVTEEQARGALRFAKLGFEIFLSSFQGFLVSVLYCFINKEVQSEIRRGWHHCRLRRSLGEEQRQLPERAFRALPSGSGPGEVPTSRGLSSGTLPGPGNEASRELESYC
As to the kind of experiment: cAMP response of HEK-293 cells stably expressing human GIP receptor (HTRF). Format: cell-based. As for the experimental part:
(§1) cAMP content of cells was determined using a kit from Cisbio Corp. (cat. no. 62AM4PEC) based on HTRF (Homogenous Time Resolved Fluorescence). For preparation, cells were split into T175 culture flasks and grown overnight to near confluency in medium (DMEM/10% FBS). Medium was then removed and cells washed with PBS lacking calcium and magnesium, followed by proteinase treatment with accutase (Sigma-Aldrich cat. no. A6964). Detached cells were washed and resuspended in assay buffer (1×HBSS; 20 mM HEPES, 0.1% BSA, 2 mM IBMX) and cellular density determined. They were then diluted to 400000 cells/ml and 25 μl-aliquots dispensed into the wells of 96-well plates. For measurement, 25 μl of test compound in assay buffer was added to the wells, followed by incubation for 30 minutes at room temperature.
For orientation: In TR-FRET formats the signal depends on donor and acceptor labels being close together.

The test system of series [2] is female NMRI-mice. As to the kind of experiment: Automated assessment of 22-hours feed intake in female NMRI-mice. The series is classed as in vivo. The protocol:
Female NMRI-mice of a body weight between 20 and 30 g were used. Mice were adapted to housing conditions for at least one week and for at least one day single-caged in the assessment equipment, when basal data were recorded simultaneously. On the study day, test product was administered subcutaneously close to the lights-off phase (12 h lights off) and assessment of feed consumption was directly started afterwards. Assessment included continued monitoring over 22 hours, while data are processed as mean over every 30 min. Repetition of this procedure over several days was possible. Restriction of assessment to 22 hours was for practical reasons to allow for reweighing of animals, refilling of feed and water and drug administration between procedures. Results could be assessed as cumulated data over 22 hours or differentiated to 30 min intervals.
Statistical analyses were performed with Everstat 6.0 by two-way ANOVA on repeated measures and Dunnett's post-hoc analyses. Differences were considered statistically significant at the p<0.05 level.
Lights-off phase (dark phase) started 4 hours later.

Another series relates to trypsin. As to the kind of experiment: Enzymatic stability testing versus trypsin. Format: in vitro ADME. To be noted: human, human recombinant trypsin, pH 8.3; % of degradation after 120 min; 2 μM peptide, 37° C.; read-out: Lability versus enzymatic degradation, Trypsin. The protocol:
(§2) The reaction was stopped by addition of ethanol. The samples were analyzed by LC-MS/MS. […] The metabolic lability is given as % of degradation.

A further series in a line: in vivo. The settings on record: female, Gottinger, minipig, plasma, sc, 0.1 mg/kg.
Series [3] deals with female NMRI-mice. As to the kind of experiment: Gastric emptying and intestinal passage in female NMRI-mice. Format: in vivo. As for the experimental part: Female NMRI-mice of a body weight between 20 and 30 g were used. Mice were adapted to housing conditions for at least one week.
Mice were overnight fasted, while water remained available all the time. On the study day, mice were weighed, single-caged and allowed access to 500 mg of feed for 30 min, while water was removed. At the end of the 30 min feeding period, remaining feed was removed and weighed. Then, the test compound/reference compound or its vehicle in the control group was administered subcutaneously. 60 min later, to allow the compound to reach relevant plasma exposure, a coloured, non-caloric bolus was instilled via gavage into the stomach. After another 30 min, the animals were sacrificed and the stomach and the small intestine prepared. The filled stomach was weighed, emptied, carefully cleaned and dried and reweighed. The stomach content, calculated as weight of filled subtracted by the weight of emptied stomach, indicated the degree of gastric emptying. The small intestine was straightened without force and measured in length. Then the distance from the gastric beginning of the gut to the tip of the farthest travelled intestinal content bolus was measured. The intestinal passage was given as ratio in percent of the latter distance and the total length of the small intestine.
Statistical analyses were performed with Everstat 6.0 by 1-way-ANOVA, followed by Dunnett's as post-hoc test. Dunnett's Test was applied to compare versus vehicle control. Differences were considered statistically significant at the p<0.05 level.
30 min later, the assessment of stomach contents and intestinal passage was done (FIG. 8).

Series [4] in a line: Solubility testing in buffer systems (HPLC-UV). Format: physicochemical. The settings on record: buffer system, target concentration 1.0 mg/mL.
The subject of a further series is plasmin. In words: Enzymatic stability testing versus plasmin. To be noted: human, human recombinant plasmin, pH 8.3; % of degradation after 120 min; 2 μM peptide, 37° C.; read-out: Lability versus enzymatic degradation, Plasmin. Format: in vitro ADME. As for the experimental part: as §2
The nature of series [5]: Subchronic effect on body weight in female diet-induced obese (DIO) C57BL/6NCrl mice (method 2). Format: in vivo. The settings on record: 3 weeks; for Overall weight change: mean ± SEM. As for the experimental part: Female C57BL/6NCrl mice were housed in groups in a specific pathogen-free barrier facility on a 12 h light/dark cycle with free access to water and high-fat diet. After 14 weeks on high-fat diet, mice were stratified to treatment groups (n=8), so that each group had similar mean body weight.
An aged-matched group with ad libitum access to standard chow and water was included as standard control group.
Before the experiment, mice were subcutaneously (s.c.) injected with vehicle solution and weighed for 3 days to acclimate them to the procedures.
Body weight was recorded daily.
Statistical analyses were performed with Everstat 6.0 by repeated measures two-way ANOVA and Dunnett's post-hoc analyses (glucose profile) and 1-way-ANOVA, followed by Dunnett's post-hoc test (body weight, body fat). Differences versus vehicle-treated DIO control mice were considered statistically significant at the p<0.05 level.

The target in series [6] is T2, human GLP-1 receptor (hGLP-1 R) (Homo sapiens, UniProt P43220).
T2 construct: expressed in transfected cells; host or cells: HEK-293
In words: cAMP response of HEK-293 cells stably expressing human GLP-1 receptor (HTRF). Format: cell-based. To be noted: EC50 hGLP-1 R, Table 7; cAMP formation. As for the experimental part:
as §1

The text below walks through data of patent US20140206608A1 (priority 2012, published 2014).

In brackets after ≈: the same amount, converted by molar mass. Where two headings read alike, the source gives them in different places. *1 amine or outer side, *2 acyl side, *3 side chain or, on linkers, in order; H or OH if unused. Where a SMILES comes first, the peptide text is derived from it. Side-chain parts run from the residue outwards. [ ]: non-standard residue; d: D form. The star is where a group is joined. γGlu = O=C(O)[C@H](CCC(=O)[*:2])N[*:1]; Stearoyl = CCCCCCCCCCCCCCCCCC(=O)*; Aib = CC(C)(N)C(=O)O

T2 sequence (P43220 24-463): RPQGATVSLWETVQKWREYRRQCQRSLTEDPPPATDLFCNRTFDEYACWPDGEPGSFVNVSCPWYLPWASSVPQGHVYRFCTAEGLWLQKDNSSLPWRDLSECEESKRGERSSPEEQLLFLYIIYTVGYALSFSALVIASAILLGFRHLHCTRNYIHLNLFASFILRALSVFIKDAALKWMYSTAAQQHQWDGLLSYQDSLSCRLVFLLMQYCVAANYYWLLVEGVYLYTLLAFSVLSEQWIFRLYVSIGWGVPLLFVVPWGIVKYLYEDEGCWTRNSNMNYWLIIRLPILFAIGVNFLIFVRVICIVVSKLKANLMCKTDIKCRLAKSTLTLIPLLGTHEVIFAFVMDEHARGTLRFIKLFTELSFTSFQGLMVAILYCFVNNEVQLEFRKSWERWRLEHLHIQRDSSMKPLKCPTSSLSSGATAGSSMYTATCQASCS
Description for in vivo: Female Gottinger minipigs were dosed 0.1 mg/kg subcutaneously (s.c.). Blood samples were collected after 0.25, 0.5, 1, 2, 4, 8, 24, 32, 48, 56 and 72 hours post application. Plasma samples were analyzed after protein precipitation via liquid chromatography mass spectrometry (LC/MS). PK parameters and half-life were calculated using WinonLin Version 5.2.1 (non-compartment model).

As for `CCCCCCCCCCCCCCCCCC(=O)N[C@@H](CCC(=O)NCCCC[C@H](NC(=O)[C@H](CCC(N)=O)NC(=O)[C@@H](NC(=O)[C@H](CO)NC(=O)[C@H](CC(C)C)NC(=O)[C@H](CC(=O)O)NC(=O)[C@H](CO)NC(=O)[C@@H](NC(=O)[C@H](Cc1ccccc1)NC(=O)[C@@H](NC(=O)CNC(=O)[C@H](CCC(=O)O)NC(=O)C(C)(C)NC(=O)[C@@H](N)Cc1ccc(O)cc1)[C@@H](C)O)[C@@H](C)O)[C@@H](C)CC)C(=O)N[C@@H](CCC(=O)O)C(=O)N[C@@H](CCC(=O)O)C(=O)N[C@@H](CCC(=O)O)C(=O)N[C@@H](C)C(=O)N[C@H](C(=O)N[C@@H](CCCNC(=N)N)C(=O)N[C@@H](CC(C)C)C(=O)N[C@@H](Cc1ccccc1)C(=O)N[C@H](C(=O)N[C@@H](CCC(=O)O)C(=O)N[C@@H](Cc1c[nH]c2ccccc12)C(=O)N[C@@H](CC(C)C)C(=O)N[C@@H](CCCCN)C(=O)N[C@@H](C)C(=O)NCC(=O)NCC(=O)N1CCC[C@H]1C(=O)N[C@@H](CO)C(=O)N[C@@H](CO)C(=O)NCC(=O)N[C@@H](C)C(=O)N1CCC[C@H]1C(=O)N1CCC[C@H]1C(=O)N1CCC[C@H]1C(=O)N[C@@H](CO)C(N)=O)[C@@H](C)CC)C(C)C)C(=O)O` [SEQ ID NO: 10, Y-Aib-E-G-T-F-T-S-D-L-S-I-Q-K(γE-x70)-EEEAVRLFIEWLKAGGPSSGAPPPS-NH2] (H-Y[Aib]EGTFTSDLSIQK([γGlu-Stearoyl])EEEAVRLFIEWLKAGGPSSGAPPPS-NH2), the EC50 (commonly the concentration needed to bring the measured effect to its halfway point) was 6.7 pM in [1] and 12.5 pM in series [6]. Besides, the “reduction of feed intake after 22 hours” value with female NMRI-mice [2] (3 μg/kg s.c., not significant, p=0.78) is 19%; with female NMRI-mice [2] (10 μg/kg s.c., p=0.049) it was 34%. Further, the metabolised at 2 h, 2 μM came out at 33% in the series with trypsin and 0% with plasmin. For the same molecule, the Cmax (as a rule, the peak of the concentration-time curve) in “in vivo” was 588 ng/mL. The half-life (commonly how long it takes for the measured level to halve) in “in vivo” is 20.1 h. Further, the results for the “increase of remaining gastric contents” value in the series with female NMRI-mice [3] (1 μg/kg s.c.), in the series with female NMRI-mice [3] (10 μg/kg s.c.) and in the series with female NMRI-mice [3] (100 μg/kg s.c.) were 1%, 28% and 68%, respectively. For the same molecule, the “reduction of intestinal passage” value with female NMRI-mice [3] (1 μg/kg s.c.) amounted to 28%; with female NMRI-mice [3] (10 μg/kg s.c.), 58%; in the series with female NMRI-mice [3] (100 μg/kg s.c.), 64%. For the same molecule, the solubility (in general, the concentration that dissolves in the medium under given conditions) at 2 h in series [4] (pH 4.5, read-out: Solubility (pH 4.5)) was 120 µg/mL (≈ 26.3 µM); in series [4] (pH 7.4, read-out: Solubility (pH 7.4)), greater than 1000 µg/mL. Also, the “decrease of body weight, relative change from baseline” value is given as 8.6% in series [5] (3 μg/kg s.c. once daily) and 14.3% in [5] (10 μg/kg s.c. once daily). The Overall weight change was -3.6 ± 1.0 g in [5] (3 μg/kg s.c. once daily) and -5.5 ± 0.8 g in [5] (10 μg/kg s.c. once daily).
